In general, IC50 refers to the midpoint of a concentration-inhibition curve.

Drawing on ChEMBL document CHEMBL3734738, “A structure-activity relationship of non-peptide macrocyclic histone deacetylase inhibitors and their anti-proliferative and anti-inflammatory activities” (Bioorg Med Chem, 2015), this text covers IC50 for 17 molecules.

Test [1] deals with T1, Histone deacetylase 8 (Homo sapiens, UniProt Q9BY41).
T1 sequence (Q9BY41 whole entry): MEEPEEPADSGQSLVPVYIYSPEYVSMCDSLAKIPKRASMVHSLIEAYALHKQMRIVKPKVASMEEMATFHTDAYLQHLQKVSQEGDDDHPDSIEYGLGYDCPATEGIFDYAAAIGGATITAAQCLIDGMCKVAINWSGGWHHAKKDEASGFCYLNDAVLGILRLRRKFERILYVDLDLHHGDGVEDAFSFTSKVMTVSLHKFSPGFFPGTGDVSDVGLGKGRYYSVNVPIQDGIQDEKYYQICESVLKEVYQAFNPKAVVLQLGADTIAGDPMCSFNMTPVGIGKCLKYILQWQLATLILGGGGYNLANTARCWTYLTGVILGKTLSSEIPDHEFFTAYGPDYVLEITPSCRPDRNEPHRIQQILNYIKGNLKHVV
Put plainly: Inhibition of recombinant HDAC8 (unknown origin) expressed in Escherichia coli BL21(DE3) after 60 mins using trichostatin A by label-free mass spectrometry-based SAMDI assay.

Test [2] addresses T2, Protein deacetylase HDAC6 (Homo sapiens, UniProt Q9UBN7).
T2 sequence (Q9UBN7 whole entry): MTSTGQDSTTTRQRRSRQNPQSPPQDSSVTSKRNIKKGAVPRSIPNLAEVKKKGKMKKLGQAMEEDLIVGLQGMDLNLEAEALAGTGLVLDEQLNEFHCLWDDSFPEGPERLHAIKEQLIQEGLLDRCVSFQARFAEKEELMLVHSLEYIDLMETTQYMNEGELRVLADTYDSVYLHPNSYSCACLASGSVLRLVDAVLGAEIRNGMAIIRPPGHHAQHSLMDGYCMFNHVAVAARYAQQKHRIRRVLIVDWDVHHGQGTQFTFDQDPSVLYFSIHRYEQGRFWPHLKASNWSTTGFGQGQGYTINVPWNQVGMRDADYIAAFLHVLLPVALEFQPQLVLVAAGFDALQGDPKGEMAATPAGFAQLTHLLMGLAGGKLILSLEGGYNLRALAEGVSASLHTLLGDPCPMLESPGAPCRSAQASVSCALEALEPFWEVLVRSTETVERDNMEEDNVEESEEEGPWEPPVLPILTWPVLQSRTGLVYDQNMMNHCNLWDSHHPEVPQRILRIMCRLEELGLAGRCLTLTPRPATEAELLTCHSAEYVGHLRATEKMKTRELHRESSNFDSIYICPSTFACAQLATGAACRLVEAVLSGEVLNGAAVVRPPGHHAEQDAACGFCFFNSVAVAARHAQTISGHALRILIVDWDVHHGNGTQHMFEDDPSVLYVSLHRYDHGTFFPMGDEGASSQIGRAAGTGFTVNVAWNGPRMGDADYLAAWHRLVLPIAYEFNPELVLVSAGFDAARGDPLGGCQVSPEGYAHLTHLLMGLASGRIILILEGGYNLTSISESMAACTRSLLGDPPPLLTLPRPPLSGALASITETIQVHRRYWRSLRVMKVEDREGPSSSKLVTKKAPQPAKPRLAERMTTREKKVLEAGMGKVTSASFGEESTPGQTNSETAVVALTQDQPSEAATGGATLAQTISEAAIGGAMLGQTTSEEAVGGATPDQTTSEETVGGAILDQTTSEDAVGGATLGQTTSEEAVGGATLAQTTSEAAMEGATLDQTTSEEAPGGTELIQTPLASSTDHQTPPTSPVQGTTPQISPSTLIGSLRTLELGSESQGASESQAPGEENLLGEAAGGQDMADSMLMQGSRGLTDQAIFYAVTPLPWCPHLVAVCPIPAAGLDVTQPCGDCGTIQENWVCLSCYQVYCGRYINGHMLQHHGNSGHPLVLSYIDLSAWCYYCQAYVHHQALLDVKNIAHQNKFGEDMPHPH
The test is described as follows: Inhibition of recombinant HDAC6 (unknown origin) expressed in Escherichia coli BL21(DE3) after 60 mins using trichostatin A by label-free mass spectrometry-based SAMDI assay.

Test [3] deals with Histone deacetylase 1 (Homo sapiens, UniProt Q13547). The test is described as follows: Inhibition of recombinant HDAC1 (unknown origin) expressed in Escherichia coli BL21(DE3) after 60 mins using trichostatin A by label-free mass spectrometry-based SAMDI assay.
Histone deacetylase 1, sequence (Q13547 whole entry): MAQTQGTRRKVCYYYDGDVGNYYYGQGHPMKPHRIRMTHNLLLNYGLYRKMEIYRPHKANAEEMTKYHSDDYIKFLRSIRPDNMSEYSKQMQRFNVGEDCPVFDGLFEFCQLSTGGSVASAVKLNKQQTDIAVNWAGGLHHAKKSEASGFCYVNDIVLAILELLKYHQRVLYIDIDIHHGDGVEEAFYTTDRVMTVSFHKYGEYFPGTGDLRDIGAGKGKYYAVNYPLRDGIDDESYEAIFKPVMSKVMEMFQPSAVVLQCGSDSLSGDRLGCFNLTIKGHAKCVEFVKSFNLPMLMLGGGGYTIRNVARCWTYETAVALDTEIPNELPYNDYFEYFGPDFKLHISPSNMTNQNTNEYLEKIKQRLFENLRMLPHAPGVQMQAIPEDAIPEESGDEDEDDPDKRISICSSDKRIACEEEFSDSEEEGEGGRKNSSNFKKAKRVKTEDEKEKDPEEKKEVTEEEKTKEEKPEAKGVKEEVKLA

For `CC[C@@H]1OC(=O)[C@@H](C)[C@H](O[C@H]2C[C@@](C)(OC)[C@](O)(CN(C)Cc3ccc(-c4cn(CCC(=O)NO)nn4)cc3)[C@H](C)O2)[C@H](C)[C@H](O[C@@H]2O[C@H](C)C[C@H](N(C)C)[C@H]2O)[C@@](C)(OC)C[C@H](C)C(=O)[C@@H](C)[C@@H](O)[C@@]1(C)O`, the results for the IC50 in test [1], in test [2] and in test [3] were 10.2 µM, 3.56 µM and above 10 µM, respectively.

`CC[C@@H]1OC(=O)[C@H](C)[C@@H](O[C@@H]2C[C@](C)(OC)[C@@](O)(CN(C)Cc3ccc(-c4cn(CCCC(=O)NO)nn4)cc3)[C@@H](C)O2)[C@@H](C)[C@@H](O[C@@H]2O[C@H](C)C[C@H](N(C)C)[C@H]2O)[C@](C)(O)C[C@@H](C)CN(C)[C@H](C)[C@@H](O)[C@]1(C)O`: the IC50 is 1.18 µM in test [1], 0.181 µM in test [2] and above 10 µM in test [3].

In the case of `CC[C@@H]1OC(=O)[C@@H](C)[C@H](O[C@H]2C[C@@](C)(OC)[C@@H](O)[C@H](C)O2)[C@H](C)[C@H](O[C@@H]2O[C@H](C)C[C@H](N(C)Cc3ccc(-c4cn(CCC(=O)NO)nn4)cc3)[C@H]2O)[C@@](C)(OC)C[C@H](C)C(=O)[C@@H](C)[C@@H](O)[C@@]1(C)O`, the results for the IC50 in test [1], in test [2] and in test [3] were 2.45 µM, 0.919 µM and above 10 µM, respectively.

With `CC[C@@H]1OC(=O)[C@H](C)[C@@H](O[C@@H]2C[C@](C)(OC)[C@H](O)[C@@H](C)O2)[C@@H](C)[C@@H](O[C@@H]2O[C@H](C)C[C@H](N(C)Cc3ccc(-c4cn(CCCCC(=O)NO)nn4)cc3)[C@H]2O)[C@](C)(O)C[C@@H](C)CN(C)[C@H](C)[C@@H](O)[C@]1(C)O`, the IC50 in test [1] was 5.38 µM; in test [2], 0.145 µM; in test [3], 1.65 µM.

Consider `CC[C@H]1OC(=O)[C@H](C)[C@@H](O[C@@H]2C[C@](C)(OC)[C@H](O)[C@@H](C)O2)[C@H](C)[C@@H](O[C@@H]2O[C@H](C)C[C@H](N(C)C)[C@H]2O)[C@@](C)(O)C[C@@H](C)CN(Cc2ccc(-c3cn(CCC(=O)NO)nn3)cc2)[C@@H](C)[C@@H](O)[C@]1(C)O`, for which the IC50 is above 10 µM in test [1], 1.23 µM in test [2] and above 10 µM in test [3].

Turning to `CC[C@@H]1OC(=O)[C@@H](C)[C@H](O[C@H]2C[C@@](C)(OC)[C@](O)(CN(C)Cc3ccc(-c4cn(CCCCC(=O)NO)nn4)cc3)[C@H](C)O2)[C@H](C)[C@H](O[C@@H]2O[C@H](C)C[C@H](N(C)C)[C@H]2O)[C@@](C)(OC)C[C@H](C)C(=O)[C@@H](C)[C@@H](O)[C@@]1(C)O`, the IC50 in test [1] amounted to 1.82 µM; in test [2], 0.269 µM; in test [3] it was 3.69 µM.

On to `CC[C@@H]1OC(=O)[C@H](C)[C@@H](O[C@@H]2C[C@](C)(OC)[C@H](O)[C@@H](C)O2)[C@@H](C)[C@@H](O[C@@H]2O[C@H](C)C[C@H](N(C)Cc3ccccc3-c3cn(CCCCCC(=O)NO)nn3)[C@H]2O)[C@](C)(O)C[C@@H](C)CN(C)[C@H](C)[C@@H](O)[C@]1(C)O`, for which the IC50 in test [1] came to 4.3 µM; in test [2], 0.178 µM; in test [3] it was 0.613 µM.

As to `CC[C@H]1OC(=O)[C@H](C)C(=O)[C@H](C)[C@@H](O[C@@H]2O[C@H](C)C[C@H](N(C)Cc3ccc(-c4cn(CCCCCC(=O)NO)nn4)cc3)[C@H]2O)[C@@](C)(OC)C[C@@H](C)C2=NCCN3C(=O)O[C@@]1(C)[C@H]3[C@H]2C`, the figures for the concentration for half-maximal inhibition (IC50) in test [1], in test [2] and in test [3] were 2.03 µM, 0.0089 µM and 0.0731 µM, respectively.

For the molecule `CC[C@@H]1OC(=O)[C@@H](C)[C@H](O[C@H]2C[C@@](C)(OC)[C@](O)(CN(C)Cc3ccc(-c4cn(CC(=O)NO)nn4)cc3)[C@H](C)O2)[C@H](C)[C@H](O[C@@H]2O[C@H](C)C[C@H](N(C)C)[C@H]2O)[C@@](C)(OC)C[C@H](C)C(=O)[C@@H](C)[C@@H](O)[C@@]1(C)O`, the results for the 50% inhibitory concentration (IC50) in test [1], in test [2] and in test [3] were 7.12 µM, 5.35 µM and above 10 µM, respectively.

Regarding `CC[C@H]1OC(=O)[C@H](C)[C@@H](O[C@@H]2C[C@](C)(OC)[C@H](O)[C@@H](C)O2)[C@H](C)[C@@H](O[C@@H]2O[C@H](C)C[C@H](N(C)C)[C@H]2O)[C@@](C)(O)C[C@@H](C)CN(Cc2ccc(-c3cn(CC(=O)NO)nn3)cc2)[C@@H](C)[C@@H](O)[C@]1(C)O`, the IC50 in test [1], in test [2] and in test [3] was above 10 µM each time.

With `CC[C@H]1OC(=O)[C@H](C)C(=O)[C@H](C)[C@@H](O[C@@H]2O[C@H](C)C[C@H](N(C)Cc3ccc(-c4cn(CCCC(=O)NO)nn4)cc3)[C@H]2O)[C@@](C)(OC)C[C@@H](C)C2=NCCN3C(=O)O[C@@]1(C)[C@H]3[C@H]2C`, the IC50 in test [1] is 2.24 µM; in test [2] it was 0.194 µM; in test [3] it was above 10 µM.

`CC[C@H]1OC(=O)[C@@H](C)[C@H](O[C@H]2C[C@@](C)(OC)[C@](O)(CN(C)Cc3ccc(-c4cn(CCCCC(=O)NO)nn4)cc3)[C@H](C)O2)[C@H](C)[C@H](O[C@H]2O[C@@H](C)C[C@@H](N(C)C)[C@@H]2O)[C@@](C)(O)C[C@H](C)CN(C)[C@@H](C)[C@H](O)[C@@]1(C)O`: the IC50 amounted to 0.709 µM in test [1], 0.0953 µM in test [2] and 0.531 µM in test [3].

`CC[C@H]1OC(=O)[C@H](C)C(=O)[C@H](C)[C@@H](O[C@@H]2O[C@H](C)C[C@H](N(C)Cc3ccccc3-c3cn(CCCCCC(=O)NO)nn3)[C@H]2O)[C@@](C)(OC)C[C@@H](C)C2=NCCN3C(=O)O[C@@]1(C)[C@H]3[C@H]2C`: the values for the IC50 in test [1], in test [2] and in test [3] were 1.19 µM, 0.248 µM and above 10 µM, respectively.

Consider `CC[C@@H]1OC(=O)[C@H](C)[C@@H](O[C@@H]2C[C@](C)(OC)[C@H](O)[C@@H](C)O2)[C@@H](C)[C@@H](O[C@@H]2O[C@H](C)C[C@H](N(C)Cc3cccc(-c4cn(CCCCCC(=O)NO)nn4)c3)[C@H]2O)[C@](C)(O)C[C@@H](C)CN(C)[C@H](C)[C@@H](O)[C@]1(C)O`, for which the IC50 turned out to be 0.604 µM in test [1], 0.0438 µM in test [2] and 0.109 µM in test [3].

With `CC[C@H]1OC(=O)[C@@H](C)[C@H](O[C@@H]2C[C@](C)(OC)[C@@](O)(CN(C)Cc3ccc(-c4cn(CC(=O)NO)nn4)cc3)[C@@H](C)O2)[C@H](C)[C@H](O[C@H]2O[C@@H](C)C[C@@H](N(C)C)[C@@H]2O)[C@@](C)(O)C[C@H](C)CN(C)[C@@H](C)[C@H](O)[C@@]1(C)O`, the IC50 in test [1] is 4.51 µM; in test [2] it was above 10 µM; in test [3], above 10 µM.

Turning to `CC[C@@H]1OC(=O)[C@H](C)[C@@H](O[C@H]2C[C@@](C)(OC)[C@](O)(CN(C)Cc3ccc(-c4cn(CCC(=O)NO)nn4)cc3)[C@H](C)O2)[C@@H](C)[C@@H](O[C@@H]2O[C@H](C)C[C@H](N(C)C)[C@H]2O)[C@](C)(O)C[C@@H](C)CN(C)[C@H](C)[C@@H](O)[C@]1(C)O`, the IC50 in test [1] was 2.23 µM; in test [2], 2.03 µM; in test [3], above 10 µM.

As to `CC[C@H]1OC(=O)[C@@H](C)[C@H](O[C@H]2C[C@@](C)(OC)[C@@H](O)[C@H](C)O2)[C@H](C)[C@H](O[C@H]2O[C@@H](C)C[C@@H](N(C)Cc3ccc(-c4cn(CCCCCC(=O)NO)nn4)cc3)[C@@H]2O)[C@@](C)(O)C[C@H](C)CN(C)[C@@H](C)[C@H](O)[C@@]1(C)O` (stereo in doubt), the IC50 worked out at 0.604 µM in test [1], 0.0143 µM in test [2] and 0.316 µM in test [3].
